The values that follow come from patent EP1131297B1, “CERTAIN SUBSTITUTED CAPROLACTAMS, PHARMACEUTICAL COMPOSITIONS CONTAINING THEM AND THEIR USE IN TREATING TUMORS” (Novartis AG, priority 1998, dated 2000).

As a reminder, the solubility is how much of the substance goes into solution per volume. The low end stands for little dissolved substance, the high end for much dissolved substance. A word on the IC50: it is the midpoint of a concentration-inhibition curve.

The subject of data set [1] is MDA-MB-435 breast carcinoma. In words: Anchorage Dependent Growth Monolayer Assay (ADGMA), MTS readout. To be noted: Homo sapiens, MDA-MB-435, 72 h, average ± S.D., 3-day exposure, A490. Format: cell-based. From the text:
As indicated above, all of the compounds of formula I, and their corresponding pharmaceutically acceptable acid addition salts, are anti-tumor agents and are, therefore, useful in inhibiting the growth of various lymphomas, sarcomas, carcinomas, myelomas, and leukemia cell lines. […] This assay was adapted from the 60 cell line assay used by the National Cancer Institute (NCI) with the following modifications: 1) a single cell line representative for the important tumor type, viz., MDA-MB-435 breast carcinoma was utilized; 2) a tetrazolium derivative, viz., MTS, was utilized to determine cell density.
The ADGMA compares the number of viable cells following a 3-day exposure to a test compound relative to a number of cells present at the time the test compound was added. […] The absorbance at 490 nm (A490) of the formazan derivative is proportional to the number of viable cells. The IC50 for a test compound is the concentration of compound required to reduce the final cell number to 50% of the final control cell number. If cell proliferation is inhibited, the assay further defines compounds as cytostatic (cell number after 3-day compound incubation >cell number at time of compound addition) or cytotoxic (cell number after 3-day compound incubation <cell number at time of compound addition).
The MDA-MB-435 breast carcinoma line was obtained from the American Type Culture Collection (ATCC) and used between passages 4-20 following thawing. MDA-MB-435 breast carcinoma was maintained and plated in DME/F12 medium containing 10% fetal bovine serum, 15 mM HEPES (pH=7.4), penicillin 100 units/mL, and streptomycin 100 µg/mL.
Cell lines are trypsinized and counted using a Coulter counter to determine plating densities. Cells are then plated in their respective maintenance media (100 µL/well) in 96 well plates at the following densities: MDA-MB-435, 3,000 cells/well. The number of cells plates as determined in preliminary experiments, results in cell densities of 75-90% of confluency by 4 days after plating. Initial cell densities, assayed one day after plating, are roughly 0.15-0.20 absorbance units greater than the media blank. Ninety-six well plates are seeded on day 0 and the test compounds are added on day 1. A control plate is created for each cell line that receives media only in row A and cells in row B. One day following plating, test compounds are added (in a final volume of 100 µL) to the test plates. Control plates receive 10 µL MTS mixture (prepared fresh on day of addition to cell plates at a ratio of 10 µL of a 0.92 mg/mL solution of PMS to a 190 µL of a 2 mg/mL solution of MTS) and 100 µL media. A490 of control plates is read 4h after MTS addition to determine initial cell density values for each cell line. Three days after addition of test compound, 10 µL/well of MTS mixture is added to the test plates and A490 is read 4h later. A490 values for wells containing cells are corrected for media absorbance, then normalized to initial density readings to determine percent net growth. IC50 values are determined from graphs of percent net growth as a function of compound concentration. Percent net growth is calculated as (Cell + Drug A490 - Initial A490/Cell + Drug Vehicle A490 - Initial A490).

The subject of data set [2] is MDA-MB-435 tumor xenografts. In words: Human tumor xenograft growth inhibition in athymic nude mouse model. To be noted: for response vs control in vivo at 10 µmol/kg / response vs control in vivo at 33 µmol/kg / response vs control in vivo at 100 µmol/kg: Mus musculus, MDA-MB-435, iv, 504 h, read-out: %T/C. Format: in vivo, athymic (nu/nu) mice. As to the method: The histologic tumor type employed was MDA-MB-435 breast carcinoma.
Positive controls are carried out with doxorubicin administered 3 times per week i.v.
Anti-tumor activity was expressed as %T/C (Δ MTV of treated group ö Δ MTV of control group X100).
(In xenograft studies the graft and the host belong to different species.)

A short description of a further data set: physchem. To be noted: water.
Where [3] appears, read: 10 µmol/kg i.v., 3X/week for 3 weeks.
Setting [4] is: 33 µmol/kg i.v., 3X/week for 3 weeks.
Where [5] appears, read: 100 µmol/kg i.v., 3X/week for 3 weeks.
Setting [6] is: 10 µmol/kg i.v., 3X/week for 3 weeks, * = statistically significant (p=<0.05).
Where [7] appears, read: 33 µmol/kg i.v., 3X/week for 3 weeks, * = statistically significant (p=<0.05).

Structures are written as SMILES. Converted amounts (≈) assume the structure as drawn. Like-named read-outs stand apart in the source and are kept apart here.

On to `CO[C@@H](C(=O)N[C@H]1CC[C@@H](OC(=O)C2CCCCC2)CNC1=O)[C@H](O)[C@@H](O)[C@H](O)/C=C/C(C)(C)C` [Ex. 1, (2R, 3R, 4S, 5R, 6E)-3,4,5-trihydroxy-2-methoxy-8,8-dimethyl-N-[(3S, 6R)-hexahydro-2-oxo-6-(cyclohexylcarbonyl)oxy-2H-azepin-3-yl]non-6-enamide], for which, in “Water solubility”, the concentration in solution (solubility) came to 3700 µg/mL (≈ 7.42 mM). The compound further returned an IC50 in data set [1] of 68 ± 40 nM. In data set [2] (setting [3]), the Dead/Total is 0/8 and the “Δ MTV” value was 107 mm^3. Besides, in data set [2] (setting [4]), the Dead/Total was 0/8 and the “Δ MTV” value is listed as 43 mm^3. Also, in data set [2] (setting [5]), the Dead/Total is recorded as 0/8 and the “Δ MTV” value was -11 mm^3. Besides, in data set [2], the response vs control in vivo at 10 µmol/kg came out at 61%, the response vs control in vivo at 33 µmol/kg was 24% and the response vs control in vivo at 100 µmol/kg is -6%.

In “Water solubility”, `CO[C@@H](C(=O)N[C@H]1CC[C@@H](OC(=O)C2CCCC2)CNC1=O)[C@H](O)[C@@H](O)[C@H](O)/C=C/C(C)(C)C` [Ex. 2, (2R, 3R, 4S, 5R, 6E)-3,4,5-trihydroxy-2-methoxy-8,8-dimethyl-N-[(3S, 6R)-hexahydro-2-oxo-6-(cyclopentylcarbonyl)oxy-2H-azepin-3-yl]non-6-enamide] came in with a solubility of 18000 µg/mL (≈ 37.1 mM). Also, in data set [1], the IC50 is 115 ± 40 nM. Moreover, in data set [2] (setting [3]), the Dead/Total was 0/8 and the “Δ MTV” value turned out to be 94 mm^3. Also, in data set [2] (setting [4]), the Dead/Total was 0/8 and the “Δ MTV” value was 19 mm^3. The response vs control in vivo at 10 µmol/kg in data set [2] (setting [6]) was determined as 67%. Besides, the response vs control in vivo at 33 µmol/kg in data set [2] (setting [7]) was 13%.

On to `CO[C@@H](C(=O)N[C@H]1CC[C@@H](OC(=O)CCc2ccccc2)CNC1=O)[C@H](O)[C@@H](O)[C@H](O)/C=C/C(C)(C)C` [Ex. 4, (2R, 3R, 4S, 5R, 6E)-3,4,5-trihydroxy-2-methoxy-8,8-dimethyl-N-[(3S, 6R)-hexahydro-2-oxo-6-(1-oxo-3-phenylpropoxy)-2H-azepin-3-yl]non-6-enamide], for which the concentration in solution in the data set “physchem” (solubility) was 800 µg/mL (≈ 1.54 mM). In data set [1], the IC50 turned out to be 10 ± 10 nM. Moreover, the Dead/Total in data set [2] (setting [3]), in data set [2] (setting [4]) and in data set [2] (setting [5]) was 0/8 in each case. For the same compound, the “Δ MTV” value is recorded as 93 mm^3 in data set [2] (setting [3]), 21 mm^3 in data set [2] (setting [4]) and -23 mm^3 in data set [2] (setting [5]). The response vs control in vivo at 10 µmol/kg in data set [2] (setting [6]) came to 53%. The response vs control in vivo at 33 µmol/kg in data set [2] (setting [7]) was found to be 12%. Further, the response vs control in vivo at 100 µmol/kg in data set [2] (100 µmol/kg i.v., 3X/week for 3 weeks, * = statistically significant (p=<0.05)) is -13%.
